{
  "source": "patent US11524966B1",
  "about": "(Valo Early Discovery, Inc., priority 2017, dated 2022)",
  "target": "T1, USP28 (His-tagged USP28-FL-mammalian) (Homo sapiens, UniProt Q96RU2)",
  "T1 construct": "Expression of USP28 (1-1077)-TEV-6*His (pTT5 vector); made in house; host or cells: Expi293f cells (pTT5 vector)",
  "T1 sequence (Q96RU2 1-1077)": "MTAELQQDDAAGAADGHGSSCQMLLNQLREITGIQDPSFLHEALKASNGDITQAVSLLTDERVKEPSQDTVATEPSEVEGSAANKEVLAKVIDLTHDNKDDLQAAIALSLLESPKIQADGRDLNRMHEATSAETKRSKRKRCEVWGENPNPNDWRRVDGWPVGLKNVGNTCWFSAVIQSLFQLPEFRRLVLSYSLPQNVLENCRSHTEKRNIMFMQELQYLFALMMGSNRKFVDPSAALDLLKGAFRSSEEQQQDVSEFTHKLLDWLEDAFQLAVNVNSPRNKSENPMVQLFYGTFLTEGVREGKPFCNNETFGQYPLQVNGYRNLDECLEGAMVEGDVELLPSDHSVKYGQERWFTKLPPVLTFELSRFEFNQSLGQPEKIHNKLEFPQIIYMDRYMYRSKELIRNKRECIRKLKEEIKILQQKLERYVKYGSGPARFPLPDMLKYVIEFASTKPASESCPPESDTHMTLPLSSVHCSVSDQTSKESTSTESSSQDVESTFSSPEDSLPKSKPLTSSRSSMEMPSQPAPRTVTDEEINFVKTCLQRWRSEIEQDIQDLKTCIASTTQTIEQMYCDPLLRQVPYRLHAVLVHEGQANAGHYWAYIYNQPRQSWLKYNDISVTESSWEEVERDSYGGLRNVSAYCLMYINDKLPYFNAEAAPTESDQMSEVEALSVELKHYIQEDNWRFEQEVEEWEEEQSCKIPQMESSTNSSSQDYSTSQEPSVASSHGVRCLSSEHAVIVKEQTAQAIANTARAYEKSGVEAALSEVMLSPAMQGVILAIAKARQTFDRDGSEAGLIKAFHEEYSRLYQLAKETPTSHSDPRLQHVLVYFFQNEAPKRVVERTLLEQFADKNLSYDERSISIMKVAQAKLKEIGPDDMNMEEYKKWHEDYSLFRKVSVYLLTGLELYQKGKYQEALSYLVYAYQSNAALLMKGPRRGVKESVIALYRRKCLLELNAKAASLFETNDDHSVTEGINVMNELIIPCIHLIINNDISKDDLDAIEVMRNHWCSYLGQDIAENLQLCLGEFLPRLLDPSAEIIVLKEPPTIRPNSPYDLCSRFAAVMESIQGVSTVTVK",
  "test": "Ubiquitin-Rhodamine 110 Assay for USP28 Activity, Example A-1(a)",
  "format": "biochemical",
  "settings": "Ubiquitin-Rhodamine 110 assay, Example A-1(a); read-out: USP28 A-1(a) IC50 range",
  "in_short": "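Full-length His-tagged human USP28 (1-1077, Expi293f-expressed), […], with 25 nM Ub-Rh110 (<<Km) in pH 8.0 Tris buffer with BME, BGG, Triton X-100. 10-point dilutions (25 μM-1.3 nM), 45 min at room temperature, citric acid stop, fluorescence 485/535 nm; IC50 by 4-parameter fit.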",
  "data": [
    {"smiles": "CO[C@@]1(C)CN(c2ccc3c(c2)OC[C@H](NC(=O)c2sc4nc(C)ccc4c2N)C3)C[C@@H]1N", "note": "[Example 281, 3-amino-N-[(3R)-7-[(3S,4S)-4-amino-3-methoxy-3-methylpyrrolidin-1-yl]-3,4-dihydro-2H-1-benzopyran-3-yl]-6-methylthieno[2,3-b]pyridine-2-carboxamide]", "values": [
      {"measurement": "IC50", "value": "1 to 50", "unit": "nM"}
    ]},
    {"smiles": "CO[C@]1(C)CN(c2ccc3c(c2)OC[C@H](NC(=O)c2sc4nc(C)ccc4c2N)C3)C[C@H]1N", "note": "[Example 282, 3-amino-N-[(3R)-7-[(3R,4R)-4-amino-3-methoxy-3-methylpyrrolidin-1-yl]-3,4-dihydro-2H-1-benzopyran-3-yl]-6-methylthieno[2,3-b]pyridine-2-carboxamide]", "values": [
      {"measurement": "IC50", "value": "1 to 50", "unit": "nM"}
    ]},
    {"smiles": "CO[C@@H]1[C@@H](N)CN(c2ccc3c(c2)OC[C@H](NC(=O)c2sc4nc(C)ccc4c2N)C3)[C@H]1C", "note": "[Example 283, 3-amino-N-[(3R)-7-[(2S,3R,4S)-4-amino-3-methoxy-2-methylpyrrolidin-1-yl]-3,4-dihydro-2H-1-benzopyran-3-yl]-6-methylthieno[2,3-b]pyridine-2-carboxamide]", "values": [
      {"measurement": "IC50", "value": "1 to 50", "unit": "nM"}
    ]},
    {"smiles": "CO[C@H]1[C@H](N)CN(c2ccc3c(c2)OC[C@H](NC(=O)c2sc4nc(C)ccc4c2N)C3)[C@@H]1C", "note": "[Example 284, 3-amino-N-[(3R)-7-[(2R,3S,4R)-4-amino-3-methoxy-2-methylpyrrolidin-1-yl]-3,4-dihydro-2H-1-benzopyran-3-yl]-6-methylthieno[2,3-b]pyridine-2-carboxamide]", "values": [
      {"measurement": "IC50", "value": "1 to 50", "unit": "nM"}
    ]},
    {"smiles": "Cc1ccc2c(N)c(C(=O)N[C@H]3CCc4nc(N5C[C@H](OC6CCC6)[C@@H](N)C5)ccc4C3)sc2n1", "note": "[Example 285, 3-amino-N-[(6S)-2-[(3S,4S)-3-amino-4-cyclobutoxypyrrolidin-1-yl]-5,6,7,8-tetrahydroquinolin-6-yl]-6-methylthieno[2,3-b]pyridine-2-carboxamide]", "values": [
      {"measurement": "IC50", "value": "50 to 200", "unit": "nM"}
    ]},
    {"smiles": "CO[C@H]1CN(c2ccc3c(n2)OC[C@H](NC(=O)c2sc4nc(C)cc(C)c4c2N)C3)C[C@@H]1N", "note": "[Example 286, 3-amino-N-[(3R)-7-[(3S,4S)-3-amino-4-methoxypyrrolidin-1-yl]-2H,3H,4H-pyrano[2,3-b]pyridin-3-yl]-4,6-dimethylthieno[2,3-b]pyridine-2-carboxamide]", "values": [
      {"measurement": "IC50", "value": "50 to 200", "unit": "nM"}
    ]},
    {"smiles": "Cc1ccc2c(N)c(C(=O)N[C@H]3COc4nc(N5C[C@H](OC(C)C)[C@@H](N)C5)ccc4C3)sc2n1", "note": "[Example 287, 3-amino-N-[(3R)-7-[(3S,4S)-3-amino-4-(propan-2-yloxy)pyrrolidin-1-yl]-2H,3H,4H-pyrano[2,3-b]pyridin-3-yl]-6-methylthieno[2,3-b]pyridine-2-carboxamide]", "values": [
      {"measurement": "IC50", "value": "200 to 2000", "unit": "nM"}
    ]},
    {"smiles": "Cc1ccc2c(N)c(C(=O)N[C@H]3COc4cc(N5CC[C@@H](N)C5)ccc4C3)sc2n1", "note": "[Example 288, 3-amino-N-[(3R)-7-[(3R)-3-aminopyrrolidin-1-yl]-3,4-dihydro-2H-1-benzopyran-3-yl]-6-methylthieno[2,3-b]pyridine-2-carboxamide]", "values": [
      {"measurement": "IC50", "value": "1 to 50", "unit": "nM"}
    ]},
    {"smiles": "CO[C@]12CNC[C@H]1CN(c1ccc3c(c1)OC[C@H](NC(=O)c1sc4nc(C)ccc4c1N)C3)C2", "note": "[Example 291, N-[(3R)-7-[(3aS,6aS)-3a-methoxy-octahydropyrrolo[3,4-c]pyrrol-2-yl]-3,4-dihydro-2H-1-benzopyran-3-yl]-3-amino-6-methylthieno[2,3-b]pyridine-2-carboxamide]", "values": [
      {"measurement": "IC50", "value": "1 to 50", "unit": "nM"}
    ]},
    {"smiles": "CO[C@@]12CNC[C@@H]1CN(c1ccc3c(c1)OC[C@H](NC(=O)c1sc4nc(C)ccc4c1N)C3)C2", "note": "[Example 292, N-[(3R)-7-[(3aR,6aR)-3a-methoxy-octahydropyrrolo[3,4-c]pyrrol-2-yl]-3,4-dihydro-2H-1-benzopyran-3-yl]-3-amino-6-methylthieno[2,3-b]pyridine-2-carboxamide]", "values": [
      {"measurement": "IC50", "value": "1 to 50", "unit": "nM"}
    ]},
    {"smiles": "CO[C@H]1CN(c2ccc3c(n2)CC[C@H](NC(=O)c2sc4nc(C)cc(C)c4c2N)C3)C[C@@H]1NC(C)=O", "note": "[Example 293, 3-amino-N-[(6S)-2-[(3S,4S)-3-acetamido-4-methoxypyrrolidin-1-yl]-5,6,7,8-tetrahydroquinolin-6-yl]-4,6-dimethylthieno[2,3-b]pyridine-2-carboxamide]", "values": [
      {"measurement": "IC50", "value": "50 to 200", "unit": "nM"}
    ]},
    {"smiles": "Cc1ccc2c(N)c(C(=O)N[C@H]3COc4cc(N5C[C@H](C(F)F)[C@@H](N)C5)ccc4C3)sc2n1", "note": "[Example 294, 3-amino-N-[(3R)-7-[(3R,4S)-3-amino-4-(difluoromethyl)pyrrolidin-1-yl]-3,4-dihydro-2H-1-benzopyran-3-yl]-6-methylthieno[2,3-b]pyridine-2-carboxamide]", "values": [
      {"measurement": "IC50", "value": "1 to 50", "unit": "nM"}
    ]},
    {"smiles": "Cc1ccc2c(N)c(C(=O)N[C@H]3COc4cc(N5C[C@@H](N)[C@H](C(F)F)C5)ccc4C3)sc2n1", "note": "[Example 295, 3-amino-N-[(3R)-7-[(3S,4R)-3-amino-4-(difluoromethyl)pyrrolidin-1-yl]-3,4-dihydro-2H-1-benzopyran-3-yl]-6-methylthieno[2,3-b]pyridine-2-carboxamide]", "values": [
      {"measurement": "IC50", "value": "1 to 50", "unit": "nM"}
    ]},
    {"smiles": "COC[C@@H]1CN(c2ccc3c(n2)CC[C@H](NC(=O)c2sc4nc(C)cc(C)c4c2N)C3)C[C@@H]1N", "note": "[Example 296, 3-amino-N-[(6S)-2-[(3R,4R)-3-amino-4-(methoxymethyl)pyrrolidin-1-yl]-5,6,7,8-tetrahydroquinolin-6-yl]-4,6-dimethylthieno[2,3-b]pyridine-2-carboxamide-]", "values": [
      {"measurement": "IC50", "value": "50 to 200", "unit": "nM"}
    ]},
    {"smiles": "COC[C@H]1CN(c2ccc3c(n2)CC[C@H](NC(=O)c2sc4nc(C)cc(C)c4c2N)C3)C[C@H]1N", "note": "[Example 297, 3-amino-N-[(6S)-2-[(3S,4S)-3-amino-4-(methoxymethyl)pyrrolidin-1-yl]-5,6,7,8-tetrahydroquinolin-6-yl]-4,6-dimethylthieno[2,3-b]pyridine-2-carboxamide]", "values": [
      {"measurement": "IC50", "value": "1 to 50", "unit": "nM"}
    ]},
    {"smiles": "COC[C@@H]1CN(c2ccc3c(n2)CC[C@H](NC(=O)c2sc4nc(C)cnc4c2N)C3)C[C@@H]1N", "note": "[Example 298, 7-amino-N-[(6S)-2-[(3R,4R)-3-amino-4-(methoxymethyl)pyrrolidin-1-yl]-5,6,7,8-tetrahydroquinolin-6-yl]-3-methylthieno[2,3-b]pyrazine-6-carboxamide]", "values": [
      {"measurement": "IC50", "value": "200 to 2000", "unit": "nM"}
    ]},
    {"smiles": "COC[C@H]1CN(c2ccc3c(n2)CC[C@H](NC(=O)c2sc4nc(C)cnc4c2N)C3)C[C@H]1N", "note": "[Example 299, 7-amino-N-[(6S)-2-[(3S,4S)-3-amino-4-(methoxymethyl)pyrrolidin-1-yl]-5,6,7,8-tetrahydroquinolin-6-yl]-3-methylthieno[2,3-b]pyrazine-6-carboxamide]", "values": [
      {"measurement": "IC50", "value": "50 to 200", "unit": "nM"}
    ]},
    {"smiles": "COC[C@@H]1CN(c2nc3c(cc2F)C[C@@H](NC(=O)c2sc4nc(C)ccc4c2N)CC3)C[C@@H]1N", "note": "[Example 300, 3-amino-N-[(6S)-2-[(3R,4R)-3-amino-4-(methoxymethyl)pyrrolidin-1-yl]-3-fluoro-5,6,7,8-tetrahydroquinolin-6-yl]-6-methylthieno[2,3-b]pyridine-2-carboxamide]", "values": [
      {"measurement": "IC50", "value": "200 to 2000", "unit": "nM"}
    ]},
    {"smiles": "COC[C@H]1CN(c2nc3c(cc2F)C[C@@H](NC(=O)c2sc4nc(C)ccc4c2N)CC3)C[C@H]1N", "note": "[Example 301, 3-amino-N-[(6S)-2-[(3S,4S)-3-amino-4-(methoxymethyl)pyrrolidin-1-yl]-3-fluoro-5,6,7,8-tetrahydroquinolin-6-yl]-6-methylthieno[2,3-b]pyridine-2-carboxamide]", "values": [
      {"measurement": "IC50", "value": "> 2000", "unit": "nM"}
    ]}
  ]
}
